Test results published in ChEMBL document CHEMBL5137085, “GNE-064: A Potent, Selective, and Orally Bioavailable Chemical Probe for the Bromodomains of SMARCA2 and SMARCA4 and the Fifth Bromodomain of PBRM1” (J Med Chem, 2022).
In brackets after ≈: the same amount, converted by molar mass. One block for each molecule: values may come before it.

Key:
Cytochrome P450 2D6 = Cytochrome P450 2D6 (Homo sapiens, UniProt P10635); test: Inhibition of CYP2D6 (unknown origin); assay type: ADME
[1] = Half life in CD-1 mouse at 0.5 mg/kg, iv; assay type: ADME, organism-based; conditions: in vivo
[2] = target: Bromodomain-containing protein 4 (Homo sapiens, UniProt O60885); test: Inhibition of BRD4 bromodomain 1 (unknown origin) by TR-FRET assay
[3] = Oral bioavailability in CD-1 mouse at 1 mg/kg; assay type: ADME, organism-based; conditions: in vivo
[4] = Cmax in CD-1 mouse at 1 mg/kg, po; assay type: ADME, organism-based; design: dose 1 mg/kg, route po; conditions: in vivo
[5] = Clearance in CD-1 mouse at 0.5 mg/kg, iv; assay type: ADME, organism-based; conditions: in vivo
[6] = Tmax in CD-1 mouse at 1 mg/kg, po; assay type: ADME, organism-based; conditions: in vivo
[7] = Lipophilicity, LogD of compound; assay type: physicochemical; conditions: octanol/water
[8] = Unbound volume of distribution at steady state in CD-1 mouse at 0.5 mg/kg, iv; assay type: ADME, organism-based; conditions: in vivo
[9] = Unbound clearance in CD-1 mouse at 0.5 mg/kg, iv; assay type: ADME, organism-based; conditions: in vivo
[10] = Protein binding in mouse plasma; assay type: ADME, cell-free; conditions: read-out: PPB (converted)
[11] = Kinetic solubility of compound; assay type: physicochemical; conditions: read-out: Kinetic_solubility
[12] = Volume of distribution at steady state in CD-1 mouse at 0.5 mg/kg, iv; assay type: ADME, organism-based; conditions: in vivo, read-out: Vdss
Cytochrome P450 1A2 = target: T1, Cytochrome P450 1A2 (Homo sapiens, UniProt P05177); test: Inhibition of CYP1A2 (unknown origin); assay type: ADME
T1 sequence (P05177 whole entry): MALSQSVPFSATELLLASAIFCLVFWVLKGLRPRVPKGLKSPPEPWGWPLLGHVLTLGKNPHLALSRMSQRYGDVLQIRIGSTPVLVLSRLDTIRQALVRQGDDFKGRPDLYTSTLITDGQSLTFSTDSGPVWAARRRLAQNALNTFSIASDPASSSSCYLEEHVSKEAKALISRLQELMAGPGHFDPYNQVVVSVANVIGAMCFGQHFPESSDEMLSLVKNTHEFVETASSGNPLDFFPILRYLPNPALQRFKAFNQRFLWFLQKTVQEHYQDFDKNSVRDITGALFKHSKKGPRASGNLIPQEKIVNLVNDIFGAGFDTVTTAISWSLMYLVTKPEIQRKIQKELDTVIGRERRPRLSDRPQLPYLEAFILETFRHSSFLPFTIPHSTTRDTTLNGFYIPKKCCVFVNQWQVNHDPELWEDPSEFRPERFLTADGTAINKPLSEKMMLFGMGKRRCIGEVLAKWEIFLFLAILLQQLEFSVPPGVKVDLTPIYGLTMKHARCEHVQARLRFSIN

[13] = Fraction unbound in CD-1 mouse at 1 mg/kg, po; assay type: ADME, organism-based; conditions: in vivo
Cytochrome P450 2C9 = Cytochrome P450 2C9 (Homo sapiens, UniProt P11712); test: Inhibition of CYP2C9 (unknown origin); assay type: ADME
[14] = Protein binding in rat plasma; assay type: ADME, cell-free; conditions: read-out: PPB (converted)
Cytochrome P450 2C19 = Cytochrome P450 2C19 (Homo sapiens, UniProt P33261); test: Inhibition of CYP2C19 (unknown origin); assay type: ADME
[15] = Protein binding in human plasma; assay type: ADME, cell-free; conditions: read-out: PPB (converted)
Cytochrome P450 2C8 = target: T2, Cytochrome P450 2C8 (Homo sapiens, UniProt P10632); test: Inhibition of CYP2C8 (unknown origin); assay type: ADME
T2 sequence (P10632 whole entry): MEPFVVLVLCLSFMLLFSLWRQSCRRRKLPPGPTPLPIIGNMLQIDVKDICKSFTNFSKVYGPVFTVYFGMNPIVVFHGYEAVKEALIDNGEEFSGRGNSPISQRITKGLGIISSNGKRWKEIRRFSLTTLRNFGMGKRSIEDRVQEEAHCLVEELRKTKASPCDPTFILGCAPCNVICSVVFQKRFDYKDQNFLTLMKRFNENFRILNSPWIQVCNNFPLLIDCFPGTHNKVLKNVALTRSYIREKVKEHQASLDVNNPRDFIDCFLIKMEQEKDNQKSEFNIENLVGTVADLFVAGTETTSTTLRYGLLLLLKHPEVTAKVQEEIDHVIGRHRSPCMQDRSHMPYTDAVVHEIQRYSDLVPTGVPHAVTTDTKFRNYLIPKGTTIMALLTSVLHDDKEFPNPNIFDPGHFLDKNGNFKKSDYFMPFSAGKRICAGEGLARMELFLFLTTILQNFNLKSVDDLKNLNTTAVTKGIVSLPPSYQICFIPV

Cytochrome P450 3A4 = Cytochrome P450 3A4 (Homo sapiens, UniProt P08684); test: Inhibition of CYP3A4 (unknown origin); assay type: ADME
Protein polybromo-1 [16] = target: T3, Protein polybromo-1 (Homo sapiens, UniProt Q86U86); test: Binding affinity to human PBRM1 bromodomain 2 (S178 to E291 residues) expressed in bacterial expression system by bromoscan assay
[17] = target: T4, SWI/SNF-related matrix-associated actin-dependent regulator of chromatin subfamily A member 2 (Homo sapiens, UniProt P51531); test: Binding affinity to human SMARCA2 (S1337 to Q1486 residues) expressed in bacterial expression system by bromoscan assay
[18] = target: T5, SWI/SNF-related matrix-associated actin-dependent regulator of chromatin subfamily A member 4 (Homo sapiens, UniProt P51532)
Protein polybromo-1 [19] = target: T3, Protein polybromo-1; test: Binding affinity to human PBRM1 bromodomain 5 (S645 to D766 residues) expressed in bacterial expression system by bromoscan assay
[20] = target: T5, SWI/SNF-related matrix-associated actin-dependent regulator of chromatin subfamily A member 4; test: Binding affinity to human SMARCA4 (A1448 to S1575 residues) expressed in bacterial expression system by bromoscan assay
Protein polybromo-1 [21] = target: T3, Protein polybromo-1; test: Inhibition of PBRM1 bromodomain 5 (unknown origin) by TR-FRET assay
[22] = target: T4, SWI/SNF-related matrix-associated actin-dependent regulator of chromatin subfamily A member 2; test: Inhibition of SMARCA2 (unknown origin) by TR-FRET assay
[23] = target: T5, SWI/SNF-related matrix-associated actin-dependent regulator of chromatin subfamily A member 4; test: Binding affinity to His6/FLAG-tagged SMARCA4 (unknown origin) by isothermal titration calorimetric assay

T4 sequence (P51531 whole entry, the tested form may be a part): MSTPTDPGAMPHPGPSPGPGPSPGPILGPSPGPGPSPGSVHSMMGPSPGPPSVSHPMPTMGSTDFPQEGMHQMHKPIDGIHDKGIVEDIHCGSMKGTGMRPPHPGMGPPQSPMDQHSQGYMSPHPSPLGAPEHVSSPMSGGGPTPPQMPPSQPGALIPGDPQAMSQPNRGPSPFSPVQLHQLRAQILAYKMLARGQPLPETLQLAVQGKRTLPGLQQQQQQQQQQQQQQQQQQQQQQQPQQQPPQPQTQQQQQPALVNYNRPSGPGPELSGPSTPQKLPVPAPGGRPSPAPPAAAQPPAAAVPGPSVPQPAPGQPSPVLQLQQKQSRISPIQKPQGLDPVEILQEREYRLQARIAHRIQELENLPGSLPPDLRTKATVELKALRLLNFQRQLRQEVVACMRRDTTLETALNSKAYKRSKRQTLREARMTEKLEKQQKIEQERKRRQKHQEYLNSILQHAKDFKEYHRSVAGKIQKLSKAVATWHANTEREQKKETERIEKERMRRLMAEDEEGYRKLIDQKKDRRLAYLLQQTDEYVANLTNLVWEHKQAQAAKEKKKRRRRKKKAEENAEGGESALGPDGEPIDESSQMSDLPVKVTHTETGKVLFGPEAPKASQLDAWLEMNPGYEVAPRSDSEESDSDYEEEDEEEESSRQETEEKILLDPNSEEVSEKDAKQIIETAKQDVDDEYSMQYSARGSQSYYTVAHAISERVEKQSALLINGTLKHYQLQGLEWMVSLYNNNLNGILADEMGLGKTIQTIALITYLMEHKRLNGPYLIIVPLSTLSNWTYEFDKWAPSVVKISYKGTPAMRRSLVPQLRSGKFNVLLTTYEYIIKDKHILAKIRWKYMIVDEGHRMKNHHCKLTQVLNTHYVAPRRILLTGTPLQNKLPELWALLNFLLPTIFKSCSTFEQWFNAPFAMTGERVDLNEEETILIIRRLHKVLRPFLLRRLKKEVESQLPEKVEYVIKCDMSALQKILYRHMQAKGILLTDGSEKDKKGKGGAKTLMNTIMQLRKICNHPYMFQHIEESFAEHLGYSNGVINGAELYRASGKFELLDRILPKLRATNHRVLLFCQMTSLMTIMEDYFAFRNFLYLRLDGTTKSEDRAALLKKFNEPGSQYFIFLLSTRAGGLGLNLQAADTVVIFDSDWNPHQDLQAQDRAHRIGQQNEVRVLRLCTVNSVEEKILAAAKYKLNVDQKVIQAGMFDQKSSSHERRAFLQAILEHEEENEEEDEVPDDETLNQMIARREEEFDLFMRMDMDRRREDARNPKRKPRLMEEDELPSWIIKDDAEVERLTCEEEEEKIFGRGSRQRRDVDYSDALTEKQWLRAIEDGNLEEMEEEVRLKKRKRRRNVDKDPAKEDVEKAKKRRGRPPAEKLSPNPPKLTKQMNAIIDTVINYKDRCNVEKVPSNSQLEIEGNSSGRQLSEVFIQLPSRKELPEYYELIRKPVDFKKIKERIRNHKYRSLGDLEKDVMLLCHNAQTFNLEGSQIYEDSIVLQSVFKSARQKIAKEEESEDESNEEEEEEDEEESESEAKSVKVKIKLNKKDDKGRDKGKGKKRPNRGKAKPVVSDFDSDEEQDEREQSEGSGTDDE
T3 sequence (Q86U86 whole entry, the tested form may be a part): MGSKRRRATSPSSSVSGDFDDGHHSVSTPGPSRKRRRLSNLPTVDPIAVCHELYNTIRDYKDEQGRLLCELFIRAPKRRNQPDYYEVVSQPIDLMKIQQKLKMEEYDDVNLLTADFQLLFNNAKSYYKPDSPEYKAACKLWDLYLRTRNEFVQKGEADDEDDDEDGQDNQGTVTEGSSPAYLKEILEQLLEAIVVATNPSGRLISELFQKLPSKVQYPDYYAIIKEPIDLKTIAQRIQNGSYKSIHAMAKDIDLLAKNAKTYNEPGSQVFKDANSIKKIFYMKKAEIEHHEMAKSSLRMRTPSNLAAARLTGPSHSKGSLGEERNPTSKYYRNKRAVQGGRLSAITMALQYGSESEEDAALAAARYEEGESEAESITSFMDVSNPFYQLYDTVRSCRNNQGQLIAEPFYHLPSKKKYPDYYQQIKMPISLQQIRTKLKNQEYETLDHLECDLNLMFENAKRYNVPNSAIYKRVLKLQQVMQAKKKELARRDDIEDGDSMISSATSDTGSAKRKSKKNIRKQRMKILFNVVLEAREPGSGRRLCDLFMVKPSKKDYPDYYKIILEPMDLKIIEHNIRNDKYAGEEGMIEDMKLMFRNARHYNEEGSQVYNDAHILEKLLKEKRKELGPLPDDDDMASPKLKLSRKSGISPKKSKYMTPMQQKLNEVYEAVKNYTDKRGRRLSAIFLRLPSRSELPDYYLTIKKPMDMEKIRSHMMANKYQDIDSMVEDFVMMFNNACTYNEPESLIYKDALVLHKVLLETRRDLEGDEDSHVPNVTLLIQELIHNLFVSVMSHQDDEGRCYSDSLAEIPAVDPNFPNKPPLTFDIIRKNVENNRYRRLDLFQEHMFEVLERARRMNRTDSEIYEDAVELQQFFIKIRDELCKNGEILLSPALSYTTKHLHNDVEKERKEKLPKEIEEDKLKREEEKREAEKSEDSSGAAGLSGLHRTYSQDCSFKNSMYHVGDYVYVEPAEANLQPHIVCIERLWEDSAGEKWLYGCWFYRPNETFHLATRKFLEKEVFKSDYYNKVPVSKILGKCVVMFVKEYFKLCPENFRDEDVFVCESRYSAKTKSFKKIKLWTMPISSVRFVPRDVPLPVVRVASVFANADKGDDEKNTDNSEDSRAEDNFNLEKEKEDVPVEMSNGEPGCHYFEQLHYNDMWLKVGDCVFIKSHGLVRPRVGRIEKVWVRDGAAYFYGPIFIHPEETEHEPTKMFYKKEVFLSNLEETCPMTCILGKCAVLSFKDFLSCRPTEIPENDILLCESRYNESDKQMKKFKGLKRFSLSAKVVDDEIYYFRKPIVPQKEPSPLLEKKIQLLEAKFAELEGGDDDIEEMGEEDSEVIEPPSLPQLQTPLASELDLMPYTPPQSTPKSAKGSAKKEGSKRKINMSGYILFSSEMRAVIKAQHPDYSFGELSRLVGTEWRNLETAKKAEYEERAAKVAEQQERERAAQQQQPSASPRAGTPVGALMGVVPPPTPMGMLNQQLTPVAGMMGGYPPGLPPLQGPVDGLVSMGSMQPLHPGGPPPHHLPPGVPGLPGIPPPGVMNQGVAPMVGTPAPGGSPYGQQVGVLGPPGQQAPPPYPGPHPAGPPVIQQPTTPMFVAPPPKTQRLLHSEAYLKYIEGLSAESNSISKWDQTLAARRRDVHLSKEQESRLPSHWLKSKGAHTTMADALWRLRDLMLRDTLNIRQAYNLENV
T5 sequence (P51532 whole entry, the tested form may be a part): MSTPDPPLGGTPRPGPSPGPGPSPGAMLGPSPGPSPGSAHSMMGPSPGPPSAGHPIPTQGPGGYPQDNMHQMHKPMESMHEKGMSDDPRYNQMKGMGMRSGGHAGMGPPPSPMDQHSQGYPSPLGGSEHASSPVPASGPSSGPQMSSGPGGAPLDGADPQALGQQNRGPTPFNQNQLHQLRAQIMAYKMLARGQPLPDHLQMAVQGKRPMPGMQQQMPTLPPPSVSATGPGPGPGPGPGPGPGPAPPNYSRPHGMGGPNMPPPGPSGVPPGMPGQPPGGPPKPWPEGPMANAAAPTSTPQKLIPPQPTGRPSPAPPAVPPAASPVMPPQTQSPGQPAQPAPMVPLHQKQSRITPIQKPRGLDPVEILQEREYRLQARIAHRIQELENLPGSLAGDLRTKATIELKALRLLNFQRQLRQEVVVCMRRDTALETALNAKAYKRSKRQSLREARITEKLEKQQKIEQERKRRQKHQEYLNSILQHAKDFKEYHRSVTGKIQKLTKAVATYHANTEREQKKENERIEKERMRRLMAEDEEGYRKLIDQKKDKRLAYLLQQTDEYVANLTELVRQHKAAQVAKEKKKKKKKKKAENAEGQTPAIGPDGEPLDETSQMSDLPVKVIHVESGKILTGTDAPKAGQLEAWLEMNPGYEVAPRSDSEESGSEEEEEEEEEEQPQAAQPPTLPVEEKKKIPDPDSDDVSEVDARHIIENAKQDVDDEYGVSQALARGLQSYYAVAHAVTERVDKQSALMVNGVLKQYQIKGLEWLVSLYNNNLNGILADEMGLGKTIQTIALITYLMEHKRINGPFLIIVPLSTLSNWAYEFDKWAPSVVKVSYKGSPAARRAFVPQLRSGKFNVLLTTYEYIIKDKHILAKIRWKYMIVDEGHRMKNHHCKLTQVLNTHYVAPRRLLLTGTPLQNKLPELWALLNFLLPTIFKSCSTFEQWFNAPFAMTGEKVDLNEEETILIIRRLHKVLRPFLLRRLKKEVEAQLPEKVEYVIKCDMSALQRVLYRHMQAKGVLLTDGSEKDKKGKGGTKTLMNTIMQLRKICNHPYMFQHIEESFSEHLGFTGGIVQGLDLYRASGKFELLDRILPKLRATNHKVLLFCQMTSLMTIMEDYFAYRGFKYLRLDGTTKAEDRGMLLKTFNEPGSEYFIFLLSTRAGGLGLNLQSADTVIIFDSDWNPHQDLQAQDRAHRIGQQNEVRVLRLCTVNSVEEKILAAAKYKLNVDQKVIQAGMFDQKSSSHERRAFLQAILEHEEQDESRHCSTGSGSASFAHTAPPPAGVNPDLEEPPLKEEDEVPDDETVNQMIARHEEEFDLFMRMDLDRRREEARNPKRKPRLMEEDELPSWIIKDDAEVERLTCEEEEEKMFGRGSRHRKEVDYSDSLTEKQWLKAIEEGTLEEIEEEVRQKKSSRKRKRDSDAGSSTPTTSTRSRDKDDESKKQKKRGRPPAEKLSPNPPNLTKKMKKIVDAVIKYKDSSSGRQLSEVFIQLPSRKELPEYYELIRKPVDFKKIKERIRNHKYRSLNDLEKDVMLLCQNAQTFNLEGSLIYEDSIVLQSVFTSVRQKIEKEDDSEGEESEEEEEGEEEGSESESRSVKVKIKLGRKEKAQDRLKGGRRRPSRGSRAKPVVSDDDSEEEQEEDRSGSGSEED

- IC50 (Cytochrome P450 2D6): > 10 µM
- half-life [1]: 66 min
- IC50 [2]: 34 µM
- bioavailability [3]: 59%
- Cmax [4]: 1000 nM
- clearance [5]: 16 mL/min/kg
- Tmax [6]: 30 min
- logD [7]: 2
- Vduss [8]: 3.2 L/kg
- CL free [9]: 52 mL/min/kg
- fraction unbound [10]: 0.31
- solubility kinetic [11]: 120 µM (≈ 39.3 µg/mL)
- Vd [12]: 1 L/kg
- IC50 (Cytochrome P450 1A2): > 10 µM
- fraction unbound [13]: 0.31
- IC50 (Cytochrome P450 2C9): > 10 µM
- fraction unbound [14]: 0.41
- IC50 (Cytochrome P450 2C19): > 10 µM
- fraction unbound [15]: 0.24
- IC50 (Cytochrome P450 2C8): > 10 µM
- IC50 (Cytochrome P450 3A4): > 10 µM
Structure (SMILES): CC(=O)N1CCN(c2cc(-c3ccccc3O)nnc2N)C[C@H]1C

- IC50 [2]: > 100 µM
- Kd (Protein polybromo-1 [16]): 5.7 µM
- Kd [17]: 4.4 µM
- IC50 [18]: 57.1 µM
- Kd (Protein polybromo-1 [19]): 27 µM
- Kd [20]: 10 µM
Structure (SMILES): Nc1nnc(-c2ccccc2)cc1-c1ccccc1

- IC50 [2]: 27 µM
- logD [7]: 3.3
- solubility kinetic [11]: 11 µM (≈ 2.9 µg/mL)
Structure (SMILES): Nc1nnc(-c2ccccc2O)cc1-c1ccccc1

- IC50 [2]: > 100 µM
- IC50 (Protein polybromo-1 [21]): 3.1 µM
- IC50 [22]: 4.3 µM
- Kd (Protein polybromo-1 [16]): 0.17 µM
- Kd [17]: 0.34 µM
- IC50 [18]: 5.3 µM
- Kd [23]: 3.5 µM
- Kd (Protein polybromo-1 [19]): 0.58 µM
- Kd [20]: 0.51 µM
Structure (SMILES): Nc1nnc2c([nH]c3ccccc32)c1-c1ccccc1
